According to US20190343822A1, “TREATMENT FOR GLAUCOMA” (INDIANA UNIVERSITY RESEARCH AND TECHNOLOGY CORPORATION, priority 2018, published 2019):

Assays:
mice [1] = assay: Intraocular pressure (IOP) in mice by rebound tonometry (Tonolab); type: in vivo
Protocol: IOP was measured in mice by rebound tonometry, using a Tonolab (Icare Finland Oy, Helsinki, Finland). This instrument uses a light plastic-tipped probe to briefly make contact with the cornea; after the probe encounters the eye the instrument measures the speed at which the probe rebounds in order to calculate IOP.
(§1) To obtain reproducible IOP measurements, mice were anesthetized with isoflurane (3% induction). The anesthetized mouse was then placed on a platform in a prone position, where anesthesia was maintained with 2% isoflurane. Baseline fop measurements are taken in both eyes. A ‘measurement’ included the average value of six readings. One eye was then treated with drug (dissolved in Tocrisolve (Tocris Biosciences), a soya-based solvent, 5 μL final volume, applied topically) while the other eye was treated with vehicle. The animal was then allowed to recover. After an hour the animal was again anesthetized as above. IOP was then measured in the drug-treated and vehicle-treated contralateral eye.
IOP measurements following drug administration were analyzed by paired t-tests comparing drug-treated eyes to contralateral vehicle-treated eyes. Where animals were injected with drug, ocular pressures of animals were compared with those of vehicle-injected animals and compared using an unpaired t-test.

[2] = Observation of signs of irritation after 7 days of daily topical treatment; type: in vivo, mice; conditions: after the 7 days of daily treatment, SR141716 1 mM topical
Protocol: as §1
The outcome of repeated daily treatment with SR1 was tested separately. […] The IOP was also lower in the vehicle treated eye but this difference was not statistically significant.

mice [3] = assay: Intraocular pressure (IOP) in mice by rebound tonometry (Tonolab); type: in vivo; remark: listed apart in the source

SMILES | IOP (mm Hg±SEM) 1 hour after intraperitoneal injection (mice [1]; PSNCBAM1 4 mg/kg IP, 1 hour, n=16, baseline IOP 19.6±0.4, p<0.005, FIG. 3B) [mm Hg] | IOP (mm Hg±SEM) in drug-treated eye after topical treatment (mice [1]; PSNCBAM1 5 mM topical, WT mice, n=8, not significant vs vehicle-treated eye 17.4±0.7, FIG. 3A) [mm Hg] | Effect of intraperitoneal injection on ocular pressure (mice [1]; intraperitoneal injection, FIG. 3B) | Effect of topical treatment on ocular pressure relative to the contralateral eye (mice [1]; topical, WT mice, FIG. 3A) | Signs of irritation [2] | Δ IOP±SEM, drug-treated eye before 7th treatment (24 hours after 6th daily treatment) (mice [3]; SR141716 1 mM topical daily, 7 days, drug-treated eye, n=8, p<0.05, FIG. 4B) [mm Hg] | Δ IOP±SEM, effect at 24 hrs after a single treatment (mice [3]; SR141716 1 mM topical, single treatment, 24 hrs, n=16, FIG. 4A) [mm Hg] | Δ IOP±SEM, effect at 48 hrs after a single treatment (mice [3]; SR141716 1 mM topical, single treatment, 48 hrs, n=16, p<0.005, FIG. 4A) | Δ IOP±SEM, effect in drug-treated eye after seven days of daily treatment (mice [1]; SR141716 1 mM topical, 7th day of daily treatment, n=8, p<0.005, FIG. 4C) [mm Hg] | Δ IOP±SEM, effect at 1 day in drug-treated eye (mice [1]; SR141716 1 mM topical, day 1 of daily treatment, n=8, FIG. 4C) [mm Hg] | Effect on intraocular pressure at midday, standard light cycle (mice [1]; SR141716 1 mM, midday, mice in standard light cycle, FIG. 1B) | Effect on intraocular pressure at midnight, reverse light cycle (mice [1]; SR141716 1 mM, midnight, mice in reverse light cycle) | Effect of daily treatments on ocular pressure (mice [1]; daily treatments over 7 days, FIG. 2C)
O=C(Nc1ccc(Cl)cc1)Nc1cccc(-c2cccc(N3CCCC3)n2)c1 [PSNCBAM1, 1-(4-chlorophenyl)-3-(3-(6-(pyrrolidin-1-yl)pyridin-2-yl)phenyl)urea] | 17.3±0.5 | 18.0±0.6 | lowered ocular pressure | did not lower ocular pressure | – | – | – | – | – | – | – | – | –
Cc1c(C(=O)NN2CCCCC2)nn(-c2ccc(Cl)cc2Cl)c1-c1ccc(Cl)cc1 [SR141716, 5-(4-Chlorophenyl)-1-(2,4-dichloro-phenyl)-4-methyl-N-(piperidin-1-yl)-1H-pyrazole-3-carboxamide] | – | – | – | – | No signs of irritation were observed | −2.9±1.0 | −0.3±0.3 | +2.0±0.6 mm Hg | −4.6±0.9 | −2.8±0.6 | raised intraocular pressure | reduced intraocular pressure | sustained lower ocular pressure
